Laboratory results taken from patent US4378348A (priority 1979, dated 1983).

Experiment: in vivo
Conditions: mouse, iv
Text: The substance of this invention was intravenously administered to male mice of DD strain weighing 20 to 21 g and checked for acute toxicity.

With `CN[C@H](CC(C)C)C(=O)N[C@H]1C(=O)N[C@@H](CC(N)=O)C(=O)N[C@H]2C(=O)N[C@H]3C(=O)N[C@H](C(=O)N[C@H](C(=O)O)c4cc(O)cc(O)c4-c4cc3ccc4O)[C@H](O)c3ccc(c(Cl)c3)Oc3cc2cc(c3O[C@@H]2O[C@H](CO)[C@@H](O)[C@H](O)[C@H]2O[C@H]2C[C@](C)(N)[C@H](O)[C@H](C)O2)Oc2ccc(cc2Cl)[C@H]1O` [vancomycin] as the compound, how does the LD50 read?
The LD50 was 400 to 500 mg/kg.
